Series [1] concerns the target alcohol oxidase (alcohol: oxygen oxidoreductase) isolated from Pichia pastoris (Komagataella phaffii, UniProt F2QY27).
Substrate in series [2]: CO
Nature of the series: purified protein, by the assay type. The settings on record: other: Pichia pastoris alcohol oxidase; substrate methanol.

`C=O` [HCHO, formaldehyde]: the “Inhibitors (inhibitory concentration of HCHO)” value in series [1] (Table I lists HCHO as inhibitor at >30 mM) is over 30 mM.
For the molecule `CO` [methanol], the Km in series [1] (read-out: apparent Michaelis constant, Km, for methanol, substrate methanol) was about 4 mM.

B1: alcohol oxidase (alcohol: oxygen oxidoreductase) isolated from Pichia pastoris (Komagataella phaffii CBS 7435) (protein)
chain: AIPEEFDILVLGGGSSGSCIAGRLANLDHSLKVGLIEAGENNLNNPWVYLPGIYPRNMKLDSKTASFYTSNPSPHLNGRRAIVPCANVLGGGSSINFMMYTRGSASDYDDFQAEGWKTKDLLPLMKKTETYQRACNNPDIHGFEGPIKVSFGNYTYPVCQDFLRASESQGIPYVDDLEDLVTAHGAEHWLKWINRDTGRRSDSAHAFVHSTMRNHDNLYLICNTKVDKIIVEDGRAAAVRTVPSKPLNPKKPSHKIYRARKQIVLSCGTISSPLVLQRSGFGDPIKLRAAGVKPLVNLPGVGRNFQDHYCFFSPYRIKPQYESFDDFVRGDAEIQKRVFDQWYANGTGPLATNGIEAGVKIRPTPEELSQMDESFQEGYREYFEDKPDKPVMHYSIIAGFFGDHTKIPPGKYMTMFHFLEYPFSRGSIHITSPDPYAAPDFDPGFMNDERDMAPMVWAYKKSRETARRMDHFAGEVTSHHPLFPYSSEARALEMDLETSNAYGGPLNLSAGLAHGSWTQPLKKPTAKNEGHVTSNQVELHPDIEYDEEDDKAIENYIREHTETTWHCLGTCSIGPREGSKIVKWGGVLDHRSNVYGVKGLKVGDLSVCPDNVGCNTYTTALLIGEKTATLVGEDLGYSGEALDMTVPQFKLGTYEKTGLARF
Regarding B1, the Km in series [2] turned out to be 4 mM.

One may read the Km as the substrate concentration at which the rate is half of its maximum.
